Results from US11661439B2, “Peptide hydrogels and use thereof” (The United States of America, as represented by the …, priority 2017, dated 2023).
Non-standard residues stand in square brackets, D forms with d. Residues, ends and D or L forms follow the SMILES beside them.

Experiments:
RFP-HDFs = assay: Hydrogel-based in vivo cell delivery with RFP fluorescence imaging; design: species or system athymic nude mice
Text: In vivo studies. Six- to eight-week-old non-tumor bearing female athymic nude mice were used for this experiment (n=3). Animal care was in accordance with the procedures outlined in the Guide for Care and Use of Laboratory Animals (National Research Council, 1996; National Academy Press, Washington, D.C.) and animal protocols were approved by the Frederick National Laboratory for Cancer Research (FNLCR) Institutional Animal Care and Use Committee.
Hydrogel-based in vivo cell transplantation. RFP-HDFs were encapsulated in 0.5 wt % AcVES3-RGDV at 10^7 cells mL^−1 as described in the 3D cell culture section. After gelation, the cell-peptide gel (10^6 cells per 100 μL) was injected into the left dorsal region of the mouse and as a control, RFP-HDF suspension in serum-free DMEM (10^6 cells per 100 μL) was injected into the right dorsal region of the mouse.
In vivo fluorescence imaging. Multispectral fluorescence imaging was performed daily (Monday-Friday) for 42 days using a Maestro Flex imager (PerkinElmer). Briefly, mice were anesthetized for 3-4 minutes in an induction chamber with 3% isoflurane with filtered air (0.2 μm filter) used as a carrier at a flow rate of 1 liter per minute. After isoflurane induction, the mice were transferred to an imaging chamber, where isoflurane was reduced to 2% and O2 was used as a carrier. The imaging platform was kept at 37° C. to maintain the mouse's internal temperature. Image acquisition (Maestro software, ver. 2.10.0) of the RFP fluorescence signal utilized a 533±26 nm excitation filter (placed in front of the 300 W xenon excitation source), a 580 nm long-pass filter (placed in front of the CCD) and implementing a multispectral imaging acquisition of 550-720 nm range, 10 nm increment, auto exposure (typically 0.5-5 seconds per emission wavelength), with a 2×2 pixel binning, resulting in a stack of images (image cube). RFP signal was distinguished from the tissue autofluorescence by employing vendor specified unmixing protocol. Quantitative analysis was performed by drawing a standard circular region of interest (ROI) over the injection site of the unmixed RFP component image. The total RFP signal (scaled counts second^−1) within each ROI was measured and plotted as a function of time.
Collection of RFP-HDFs from the tissue graft. After in vivo imaging on day 42, mice were euthanized using CO2 and ex vivo images (Maestro Software) were acquired by exposing the cell-peptide gel injection site. Image acquisition and processing were performed with the same parameters as performed for in vivo imaging as stated above. Utilizing the unmixed RFP image to guide resecting the RFP-positive tissue, the RFP positive cells were resected and then homogenized by squeezing them through a cell strainer. The collected cells were then cultured on a tissue culture plate with FBS-supplemented DMEM for 10 days and observed using an EVOS FL Auto Cell Imaging System.

[1] = tested on: human dermal fibroblasts (HDFs); assay: 3D cell encapsulation culture of HDFs in gels; assay type: cell-based
Experimental: 3D cell culture in peptide gels. Peptides were initially dissolved in 285 mM sucrose at 1 wt % on ice and mixed with an equal volume of cell suspension in serum-free HEPES-supplemented DMEM (2×10^6 cells mL^−1). The cell-peptide suspension (5×10^4 cells per 50 μL per insert) was transferred to a Falcon cell culture insert (for 24-well plates, 8 μm pore size, Corning) and incubated at 37° C. for 30 min for gelation. These inserts were previously coated with the empty hydrogel (30 μL per insert) to avoid cell adhesion to the bottom surface of the inserts. After gelation of cell-peptide solution, 500 μL of Essential 8 Medium were added to the top and bottom of the gels. Type I collagen gels were prepared following manufacturer's instructions. Briefly, a 0.4 wt % collagen solution was prepared on ice and mixed with cell suspension in serum-free DMEM (4×10^6 cells mL^−1) at a ratio of 3:1 (0.3 wt % collagen, 1×10^6 cells mL^−1).
Cell viability assay. Cell viability was evaluated by live and dead cell staining after 2D and 3D cell culture. Serum-free DMEM containing 1 μM calcein-AM and 2 μM ethidium homodimer-1 was added to the cells (200 μL per well for 2D culture and 500 μL each to the top and bottom of the gels for 3D culture). After incubation at 37° C. for 30 min, live and dead cells were visualized using EVOS FL Auto Cell Imaging System (Thermo Fisher Scientific). For the pseudo-colored composite image of varying heights of encapsulated cells, images of the live-stained cells were captured every 5 μm of height. Then Z-stack images for each 100 μm were flattened using the EVOS software, and the flattened images were pseudo-colored and merged using ImageJ.
Cell proliferation assay. A cell proliferation assay was performed using Cell Counting Kit-8 (CCK-8, Dojindo Molecular Technologies) for 2D and 3D cell culture. […] Subsequently, media were transferred to 96-well plates (150 μL per well) and their absorbance measured at 450 nm relative to control viabilities from day 0 for 2D cell culture and day 1 for 3D cell culture. […]

## CC(=O)N[C@H](C(=O)N[C@@H](CCC(=O)O)C(=O)N[C@H](C(=O)N[C@@H](CO)C(=O)N[C@H](C(=O)N[C@@H](CO)C(=O)N[C@H](C(=O)N[C@@H](CCC(=O)O)C(=O)N[C@H](C(=O)N1CCC[C@@H]1C(=O)N1CCC[C@H]1C(=O)N[C@H](C(=O)N[C@@H](CCC(=O)O)C(=O)N[C@H](C(=O)N[C@@H](CO)C(=O)N[C@H](C(=O)N[C@@H](CCC(=O)O)C(=O)N[C@H](C(=O)N[C@@H](CCC(=O)O)C(=O)N[C@H](C(=O)NCC(=O)NCC(=O)NCC(=O)NCC(=O)N[C@@H](CCCNC(=N)N)C(=O)NCC(=O)N[C@@H](CC(=O)O)C(=O)N[C@H](C(N)=O)C(C)C)C(C)C)C(C)C)C(C)C)C(C)C)[C@@H](C)O)C(C)C)C(C)C)C(C)C)C(C)C)C(C)C [AcVES3-RGDV] (Ac-VEVSVSVEV[dP]PTEVSVEVEVGGGGRGDV-NH2)
RFP-HDFs; 10^6 RFP-HDFs per 100 μL gel
  retention of cells after initial injection: over 40 days
RFP-HDFs; 10^6 RFP-HDFs per 100 μL, dorsal injection, from slopes of the lines
  slowing of dissipation of injected cells versus cell suspension control: ~6 fold
RFP-HDFs; day 42
  RFP signal still detected at injection site: approximately 2%
RFP-HDFs; day 42, dissected subcutaneous tissue
  inflammation around the injection site: no apparent inflammation
RFP-HDFs; mouse, in vivo
  localization, retention and engraftment of delivered cells: dramatically enhance localization and retention of the delivered cells and also support engraftment
[1]; 3D culture, Essential 8 Medium
  cell proliferation rate relative to the collagen gel: 2-3 fold
[1]; Essential 8 Medium, one week
  cell proliferation of encapsulated HDFs, 3D culture: proliferated well with minimal cell death
[1]; day 4, heights 0-500 μm
  distribution of encapsulated cells in the gel: homogenously distributed throughout the gel matrix
